Source: US4100346A, “Certain 7(o-amino-methyl- or methylaminomethylphenyl- or cyclohexadienyl- or thienylacetamide)-3[1-carboxymethyl-(or ethyl- or propyl-)-tetrazol-5-ylthiomethyl]-3-cephem-4-carboxylic acids” (Bristol-Myers Company, priority 1976, dated 1978)
Converted amounts (≈) assume the structure as drawn. Read-outs that look alike come from different tables or passages of the source.

Experiments:
Staphylococcus Aureus [1] = experiment: Effect of inoculum size on susceptibility of Staphylococcus aureus; type: cell-based; settings: for MICB /MICA: MIC at 10^6 over MIC at 10^2 organisms
Proteus morganii = experiment: Intramuscular treatment of systemically infected mice; type: in vivo; settings: Morganella morganii, im, 3.5 h, read-out: PD50 /treatment
Text: (§1) Treatment of Systemically Infected Mice. The procedures were identical with those published previously [Leitner et al., BL-S640, a Cephalosporin With a Broad Spectrum of Antibacterial Activity: Bioavailability and Therapeutic Properties in Rodents, Antimicrob. Agents Chemother. 7:306-310, (1975)], except that:
(§2) (a) the hog gastric mucin used in infections with Staphylococcus aureus No. 2 was purchased from American Laboratories, Inc., Omaha, Neb. (lot No. 154163) and b) that the medium used to suspend all other organisms contained 3% (rather than 4%) hog gastric mucin (type 1701W, Wilson Laboratories, Inc., Park Forest South, Ill.).
(§3) *Animals were treated twice; 1 and 3.5 hours after infection.

Proteus vulgaris = experiment: as above; type: in vivo; settings: im, 3.5 h, read-out: PD50 /treatment
Text: as §1, §2, §3

Klebsiella pneumoniae = experiment: as above; type: in vivo; settings: im, 3.5 h, read-out: PD50 /treatment
Text: as §1, §2, §3

Providencia stuartii = experiment: as above; type: in vivo; settings: im, 3.5 h, read-out: PD50 /treatment
Text: as §1, §2, §3

Escherichia coli [2] = experiment: as above; type: in vivo; settings: im, 3.5 h, read-out: PD50 /treatment
Text: as §1, §2, §3

Streptococcus pyogenes = experiment: as above; type: in vivo; settings: im, 3.5 h, read-out: PD50 /treatment
Text: as §1, §2
(§4) *Animals infected with penicillinase-producing staphyloccal strains (No.
(§5) and 3) were treated 0 and 2 hours after infection; the others were treate
(§6) 1 and 3.5 hours after infection.

Staphylococcus aureus [3] = experiment: as above; type: in vivo; settings: im, read-out: PD50 /treatment
Text: as §1, §2, §4, §5, §6

Streptococcus pneumoniae = experiment: as above; type: in vivo; settings: im, 3.5 h, read-out: PD50 /treatment
Text: as §1, §2, §4, §5, §6

Vibrio cholerae = experiment: Growth inhibitory activity, antibiotic dilution technique; settings: read-out: Minimum inhibitory concentration
Listeria monocytogenes = experiment: as above; settings: read-out: Minimum inhibitory concentration
in vitro = in vitro ADME, human; settings: human, serum; read-out: protein bound (converted)
Enterobacter cloacae = experiment: Effect of inoculum size on susceptibility of Enterobacteriaceae
Erwinia sp. = experiment: Growth inhibitory activity, antibiotic dilution technique; settings: read-out: Minimum inhibitory concentration
Neisseria gonorrhoeae = experiment: as above
Escherichia coli [4] = experiment: Effect of inoculum size on susceptibility of Enterobacteriaceae
Pasteurella multocida = experiment: Growth inhibitory activity, antibiotic dilution technique; settings: read-out: Minimum inhibitory concentration
Haemophilus influenzae = experiment: as above; settings: including 9 ampicillin-resistant strains
Bacteroides Fragilis = experiment: Growth inhibitory activity, antibiotic dilution technique (obligate anaerobes); type: cell-based; settings: 3 strains, geometric mean when applicable, read-out: Minimum inhibitory concentration
Method: Antibiotic spectrum. […] Procedures were as follows:
c. Obligate anaerobes. The assay was performed on solid medium, consisting of Brain Heart Infusion Broth (BBL) supplemented with 5% defibrinated sheep blood and 1% Ionagar (Colab). […] The plates were incubated at 37° C. for 48 hours under the oxygen-free conditions attained with a Gas-Pak (BBL) Brewer jar system.

In the case of CC(=O)OCC1=C(C(=O)O)N2C(=O)[C@@H](NC(=O)Cc3cccs3)[C@H]2SC1 [Cephalothin], the “effect of cell concentration on growth inhibitory activity” value (Staphylococcus Aureus [1]) was “slightly”, the “MICB /MICA” value (Staphylococcus Aureus [1]; Lacking penicillinase, 3 strains) was 1.0 and the “MICB /MICA” value (Staphylococcus Aureus [1]; Penicillinase producer, 26 strains) was 2.2. For the same compound, the ED50 (Proteus morganii; Proteus morganii strain 1, challenge 1×10^5 -4×10^5, treated 1 and 3.5 hours after infection) was greater than 350 mg/kg, the ED50 (Proteus morganii; Proteus morganii strain 2, challenge 2×10^6 -3×10^6, treated 1 and 3.5 hours after infection) was greater than 400 mg/kg and the ED50 (Proteus vulgaris; Proteus vulgaris strain 1, challenge 1×10^6 -2×10^6, treated 1 and 3.5 hours after infection) was 11 mg/kg. For the same compound, the ED50 (Proteus vulgaris; Proteus vulgaris strain 3, challenge 4×10^5, treated 1 and 3.5 hours after infection) was 17 mg/kg, the ED50 (Klebsiella pneumoniae; Klebsiella pneumoniae strain 1, challenge 4×10^4 -5×10^4, treated 1 and 3.5 hours after infection) was 94 mg/kg and the ED50 (Klebsiella pneumoniae; Klebsiella pneumoniae strain 7, challenge 9×10^2 -1×10^3, treated 1 and 3.5 hours after infection) was greater than 380 mg/kg. For the same compound, the ED50 (Providencia stuartii; Providencia stuartii strain 2, challenge 1×10^6 ×5×10^6, treated 1 and 3.5 hours after infection) was greater than 380 mg/kg, the ED50 (Providencia stuartii; Providencia stuartii strain 3, challenge 2×10^7, treated 1 and 3.5 hours after infection) was 160 mg/kg and the ED50 (Escherichia coli [2]; Escherichia coli strain 1, challenge 2×10^5 organisms, treated 1 and 3.5 hours after infection) was 42 mg/kg. The ED50 (Escherichia coli [2]; Escherichia coli strain 8, challenge 6×10^5 -4×10^6, treated 1 and 3.5 hours after infection) was 97 mg/kg, the ED50 (Escherichia coli [2]; Escherichia coli strain 9, challenge 7×10^3 -2×10^4, treated 1 and 3.5 hours after infection) was 180 mg/kg and the ED50 (Streptococcus pyogenes; Streptococcus pyogenes strain 1, challenge 2 × 10^3 -6 × 10^3, treated 1 and 3.5 hours after infection) was 4.5 mg/kg. The ED50 (Streptococcus pyogenes; Streptococcus pyogenes strain 2, challenge 1 × 10^4 - 5 × 10^4, treated 1 and 3.5 hours after infection) was 2.7 mg/kg, the ED50 (Staphylococcus aureus [3]; 3.5 h, Staphylococcus aureus strain 1, challenge 2 × 10^5 - 3 × 10^5, treated 1 and 3.5 hours after infection) was 0.3 mg/kg and the ED50 (Staphylococcus aureus [3]; Staphylococcus aureus strain 2 (penicillinase-producing), challenge 1 × 10^9, treated 0 and 2 hours after infection) was 9.3 mg/kg. It also gave an ED50 (Staphylococcus aureus [3]; Staphylococcus aureus strain 3 (penicillinase-producing), challenge 5 × 10^8 - 7 × 10^9, treated 0 and 2 hours after infection) of 32 mg/kg, an ED50 (Streptococcus pneumoniae; Streptococcus pneumoniae strain 1, challenge 2 × 10^3 - 9 × 10^3, treated 1 and 3.5 hours after infection) of 4 mg/kg and an ED50 (Streptococcus pneumoniae; Streptococcus pneumoniae strain 2, challenge 1 × 10^4 - 3 × 10^4, treated 1 and 3.5 hours after infection) of 19 mg/kg. The MIC (Vibrio cholerae) was 1 µg/mL (≈ 2.52 µM), the MIC (Listeria monocytogenes) was 2 µg/mL (≈ 5.04 µM) and the fraction unbound (in vitro) was 0.33. The MIC (Enterobacter cloacae; read-out: Minimum Inhibitory Concentration, Enterobacter cloacae strain 1, A, Inoculum of 10^2 organisms) was 8 µg/mL (≈ 20.2 µM), the MIC (Enterobacter cloacae; read-out: Minimum Inhibitory Concentration, Enterobacter cloacae strain 1, B, Inoculum of 10^6 organisms) was greater than 250 µg/mL and the MIC (Enterobacter cloacae; read-out: Minimum Inhibitory Concentration, Enterobacter cloacae strain 2, A, Inoculum of 10^2 organisms) was 16 µg/mL (≈ 40.4 µM). It also gave an MIC (Enterobacter cloacae; read-out: Minimum Inhibitory Concentration, Enterobacter cloacae strain 2, B, Inoculum of 10^6 organisms) greater than 250 µg/mL, an MIC (Enterobacter cloacae; read-out: Minimum Inhibitory Concentration, Enterobacter cloacae strain 3, A, Inoculum of 10^2 organisms) of 16 µg/mL (≈ 40.4 µM) and an MIC (Enterobacter cloacae; read-out: Minimum Inhibitory Concentration, Enterobacter cloacae strain 3, B, Inoculum of 10^6 organisms) of 250 µg/mL (≈ 631 µM). For the same compound, the MIC (Enterobacter cloacae; read-out: Minimum Inhibitory Concentration, Enterobacter cloacae strain 4, A, Inoculum of 10^2 organisms) was 32 µg/mL (≈ 80.7 µM), the MIC (Enterobacter cloacae; read-out: Minimum Inhibitory Concentration, Enterobacter cloacae strain 4, B, Inoculum of 10^6 organisms) was greater than 250 µg/mL and the MIC (Enterobacter cloacae; read-out: Minimum Inhibitory Concentration, Enterobacter cloacae strain 5, A, Inoculum of 10^2 organisms) was 16 µg/mL (≈ 40.4 µM). For the same compound, the MIC (Enterobacter cloacae; read-out: Minimum Inhibitory Concentration, Enterobacter cloacae strain 5, B, Inoculum of 10^6 organisms) was 250 µg/mL (≈ 631 µM), the MIC (Erwinia sp.) was 5.3 µg/mL (≈ 13.4 µM) and the “susceptibility of Neisseria gonorrhoeae” value (Neisseria gonorrhoeae) was “equally susceptible”. It also gave an MIC (Escherichia coli [4]; read-out: Minimum Inhibitory Concentration, Escherichia coli strain 1, A, Inoculum of 10^2 organisms) of 8 µg/mL (≈ 20.2 µM), an MIC (Escherichia coli [4]; read-out: Minimum Inhibitory Concentration, Escherichia coli strain 1, B, Inoculum of 10^6 organisms) of 32 µg/mL (≈ 80.7 µM) and an MIC (Escherichia coli [4]; read-out: Minimum Inhibitory Concentration, Escherichia coli strain 2, A, Inoculum of 10^2 organisms) of 16 µg/mL (≈ 40.4 µM). For the same compound, the MIC (Escherichia coli [4]; read-out: Minimum Inhibitory Concentration, Escherichia coli strain 2, B, Inoculum of 10^6 organisms) was 32 µg/mL (≈ 80.7 µM), the MIC (Escherichia coli [4]; read-out: Minimum Inhibitory Concentration, Escherichia coli strain 3, A, Inoculum of 10^2 organisms) was 4 µg/mL (≈ 10.1 µM) and the MIC (Escherichia coli [4]; read-out: Minimum Inhibitory Concentration, Escherichia coli strain 3, B, Inoculum of 10^6 organisms) was 16 µg/mL (≈ 40.4 µM). It also gave an MIC (Escherichia coli [4]; read-out: Minimum Inhibitory Concentration, Escherichia coli strain 4, A, Inoculum of 10^2 organisms) of 4 µg/mL (≈ 10.1 µM), an MIC (Escherichia coli [4]; read-out: Minimum Inhibitory Concentration, Escherichia coli strain 4, B, Inoculum of 10^6 organisms) of 32 µg/mL (≈ 80.7 µM) and an MIC (Escherichia coli [4]; read-out: Minimum Inhibitory Concentration, Escherichia coli strain 5, A, Inoculum of 10^2 organisms) of 4 µg/mL (≈ 10.1 µM). For the same compound, the MIC (Escherichia coli [4]; read-out: Minimum Inhibitory Concentration, Escherichia coli strain 5, B, Inoculum of 10^6 organisms) was 32 µg/mL (≈ 80.7 µM), the MIC (Escherichia coli [4]; read-out: Minimum Inhibitory Concentration, Escherichia coli strain 6, A, Inoculum of 10^2 organisms) was 8 µg/mL (≈ 20.2 µM) and the MIC (Escherichia coli [4]; read-out: Minimum Inhibitory Concentration, Escherichia coli strain 6, B, Inoculum of 10^6 organisms) was 16 µg/mL (≈ 40.4 µM). For the same compound, the MIC (Escherichia coli [4]; read-out: Minimum Inhibitory Concentration, Escherichia coli strain 7, A, Inoculum of 10^2 organisms) was 1 µg/mL (≈ 2.52 µM), the MIC (Escherichia coli [4]; read-out: Minimum Inhibitory Concentration, Escherichia coli strain 7, B, Inoculum of 10^6 organisms) was 8 µg/mL (≈ 20.2 µM) and the MIC (Pasteurella multocida) was 0.09 µg/mL (≈ 0.227 µM). For the same compound, the “relative activity against Haemophilus influenzae” value (Haemophilus influenzae) was “more than twice as active” and the MIC (Bacteroides Fragilis) was 125 µg/mL (≈ 315 µM).
